The source of these data is paper PMC2668518 (Bioconjugate chemistry, 2009).

This data set can be described thus: Biodistribution of radiolabeled closo-borate. Format: in vivo, Male athymic mice (nu/nu). Conditions: mice; for tissue(s) with the highest concentration of radionuclide: 1 and 4 h pi; for concentration in urine: 1 h pi, urine at sacrifice; for route of excretion: inferred from tissue distribution at 1 and 4 h pi; for concentration in kidney: injected via lateral tail vein.

As to [Et3NH]2B10H8I-CONHpropyl [[^125I]1e], the “tissue(s) with the highest concentration of radionuclide” value (“tissue(s)” below) is on record as “kidney”, the concentration in urine turned out to be 320 ± 135 %ID/g and the route of excretion entry is listed as “renal clearance”. The concentration in kidney (1 h post injection) is listed as 6.6 %ID/g. Besides, under “4 h post injection”, the concentration in kidney worked out at 0.27 %ID/g.
With “[Et3NH]2B12H10At-CONHpropyl [[^211At]2c]”, the “tissue(s)” value was “kidney” and the route of excretion entry is recorded as “kidney”.
For the substance [Et3NH]2B12H10I-CONHpropyl [[^125I]2b], the “tissue(s)” value is “kidney” and the route of excretion result is recorded as “kidney”. The substance further showed a concentration in kidney (1 h post injection) of 19.8 %ID/g. Further, the concentration in kidney (4 h post injection) was found to be 26.5 %ID/g.
For [nBu4N]2B10H8At-CONHpropyl [[^211At]1c], the “tissue(s)” value was “liver and intestines”; the concentration in urine is recorded as 33.11 ± 14.06 %ID/g.
[nBu4N]2B10H8I-CONHpropyl [[^125I]1b]: the “tissue(s)” value is “liver and intestines”; the concentration in urine was determined as 174.43 ± 90.33 %ID/g; the route of excretion entry is “hepatobiliary rather than renal”.
